Results: US7064206B1 (University of Kentucky Research Foundation, priority 2003, dated 2006)

Legend:
[1] = target: human serum albumin (HSA) (Homo sapiens, UniProt P02768); conditions: cited from earlier work
[2] = human blood, cited from earlier work
[3] = target: T1, topoisomerase I cleavage complexes (Homo sapiens, UniProt P11387); conditions: cell-free; vs camptothecin or SN-38; cited from earlier work
T1 sequence (P11387 1-765): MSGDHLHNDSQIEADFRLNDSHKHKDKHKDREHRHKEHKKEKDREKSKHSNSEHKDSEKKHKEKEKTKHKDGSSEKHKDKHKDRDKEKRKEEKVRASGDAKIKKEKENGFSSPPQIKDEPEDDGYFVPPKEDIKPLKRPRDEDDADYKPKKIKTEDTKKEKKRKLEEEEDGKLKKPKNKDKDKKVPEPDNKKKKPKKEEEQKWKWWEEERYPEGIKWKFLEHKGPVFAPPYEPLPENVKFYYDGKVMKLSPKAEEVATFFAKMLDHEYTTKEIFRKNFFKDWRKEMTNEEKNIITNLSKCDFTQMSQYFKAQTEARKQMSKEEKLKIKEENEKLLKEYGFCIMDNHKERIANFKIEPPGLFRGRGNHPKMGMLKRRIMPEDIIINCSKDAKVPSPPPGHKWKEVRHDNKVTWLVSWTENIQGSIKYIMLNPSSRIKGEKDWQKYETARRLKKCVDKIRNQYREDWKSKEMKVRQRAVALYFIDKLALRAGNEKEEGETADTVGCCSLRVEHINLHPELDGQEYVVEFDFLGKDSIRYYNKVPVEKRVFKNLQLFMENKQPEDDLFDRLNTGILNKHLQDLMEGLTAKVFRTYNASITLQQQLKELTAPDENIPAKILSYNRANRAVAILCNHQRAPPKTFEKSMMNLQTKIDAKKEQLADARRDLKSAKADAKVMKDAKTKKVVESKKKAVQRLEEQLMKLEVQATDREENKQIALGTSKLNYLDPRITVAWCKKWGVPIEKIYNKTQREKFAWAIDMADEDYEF

human glioma = conditions: murine model; cited from earlier work
[4] = Non-enzymatic decomposition of the glycinate ester prodrug at physiological pH; type: physicochemical; conditions: pH of 7 or above
Excerpt: 4 arose by a competitive intermolecular reaction to the lactam intermediate and reacted to release both 5 and 6.

[5] = Stability of free and liposomal prodrug in whole blood

Sequence of human serum albumin (HSA) (P02768 25-609): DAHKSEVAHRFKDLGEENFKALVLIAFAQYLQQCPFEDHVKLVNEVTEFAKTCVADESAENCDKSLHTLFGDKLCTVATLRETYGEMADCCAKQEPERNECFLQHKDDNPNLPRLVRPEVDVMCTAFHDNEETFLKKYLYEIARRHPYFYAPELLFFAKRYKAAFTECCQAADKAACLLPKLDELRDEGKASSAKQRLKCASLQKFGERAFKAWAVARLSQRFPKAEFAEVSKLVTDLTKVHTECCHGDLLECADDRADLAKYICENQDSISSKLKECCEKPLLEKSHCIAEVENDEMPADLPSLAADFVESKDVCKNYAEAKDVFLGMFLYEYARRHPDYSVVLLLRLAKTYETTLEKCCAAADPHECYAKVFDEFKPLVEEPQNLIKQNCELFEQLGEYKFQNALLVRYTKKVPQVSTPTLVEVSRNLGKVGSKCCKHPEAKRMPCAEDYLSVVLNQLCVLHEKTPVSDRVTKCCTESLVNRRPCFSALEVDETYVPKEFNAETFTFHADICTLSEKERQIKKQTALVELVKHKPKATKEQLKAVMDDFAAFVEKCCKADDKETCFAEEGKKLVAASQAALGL

CCc1c2c(nc3ccc(O)cc13)-c1cc3c(c(=O)n1C2)COC(=O)[C@]3(O)CC [SN-38]
association of carboxylate form with the high affinity carboxylate binding pocket on HSA [1]: block SN-38 from associating

CC[C@@]1(O)C(=O)OCc2c1cc1n(c2=O)Cc2c-1nc1ccc(O)cc1c2[Si](C)(C)C(C)(C)C [DB-67, 7-t-butyldimethylsilyl-10-hydroxycamptothecin]
association of carboxylate form with the high affinity carboxylate binding pocket on HSA [1]: blocks the associations
% lactone at equilibrium [2]: 30%
t1/2 ([2]; lactone hydrolysis): 2.17 h
stability of topoisomerase I cleavage complexes [3]: more stable topoisomerase I cleavage complexes than camptothecin or SN-38
activity against human glioma (human glioma): display activity against human glioma

Camptothecin
affinity of lactone form for HSA ([1]; lactone form): moderate affinity

CC[C@@]1(OC(=O)CN)C(=O)OCc2c1cc1n(c2=O)Cc2c-1nc1ccc(O)cc1c2[Si](C)(C)C(C)(C)C [DB-67 20(S)-glycinate ester]
decomposition at physiological pH [4]: rapid and convenient non-enzymatic decomposition process that releases active DB-67

DB-67 4-aminobutanoate ester
decomposition of free prodrug [5]: extensive
